From patent US20260001884A1, “Heterocycle compounds for the treatment of cancer” (Hoffmann-La Roche Inc., priority 2022, published 2026)

Assays:
CD73 (MDA-MB-231 cells) = CD73 (MDA-MB-231 cells) (Homo sapiens (Human), UniProt P21589); experiment: CD73 Cellular Assay; format: cell-based; conditions: 10 μM AMP working solution, 45 min at 37° C., Malachite Green readout, read-out: Cellular IC50 against CD73
Method: Compound serial dilution (1:3) was prepared with Echo 555 liquid handler (Labcyte) into the corresponding wells of a 384-well plate. 40 μL of MDA-MB-231 cells (ATCC, HTB-26, breast cancer, final concentration at 20,000 cells/mL) suspended in assay buffer (25 mM Tris-HCl pH 7.5, 5 mM MgCl2, 0.01% BSA, 0.01% Brij-35) were added into the corresponding wells of the plate. After incubating with compounds for 30 minutes, 40 μL of AMP working solution (10 μM AMP, 25 mM Tris-HCl pH 7.5, 5 mM MgCl2, 0.01% BSA, 0.01% Brij-35) was added into each well in the assay plate. The assay plate was then incubated in a 5% CO2 incubator (Thermo Fisher Scientific) at 37° C. for 45 min. After the reaction was completed, 50 μL of the supernatants was collected and transferred into a new 384 well plate. 10 μL of Malachite A was added to each well in the assay plate and incubated for 10 minutes. 10u L of Malachite B was then added to each corresponding well of the plate and incubated for 30 minutes. Finally the absorbance value was read on the Envision plate reader at […]. Calculation percentage inhibition by using equation {% inhibition=100×[I−(X−MIN)/(MAX−MIN)]} where X equals to the well signal, Max equals signal of DMSO control and MIN equals signal of no cell control.

recombinant CD73 protein = recombinant CD73 protein (Homo sapiens (Human), UniProt P21589); experiment: CD73 Biochemical Assay; conditions: 0.2 nM recombinant CD73, 10 μM AMP working solution, Malachite Green readout; read-out: Enzymatic IC50 against CD73
Chain of recombinant CD73 protein (P21589 27-574, species assumed): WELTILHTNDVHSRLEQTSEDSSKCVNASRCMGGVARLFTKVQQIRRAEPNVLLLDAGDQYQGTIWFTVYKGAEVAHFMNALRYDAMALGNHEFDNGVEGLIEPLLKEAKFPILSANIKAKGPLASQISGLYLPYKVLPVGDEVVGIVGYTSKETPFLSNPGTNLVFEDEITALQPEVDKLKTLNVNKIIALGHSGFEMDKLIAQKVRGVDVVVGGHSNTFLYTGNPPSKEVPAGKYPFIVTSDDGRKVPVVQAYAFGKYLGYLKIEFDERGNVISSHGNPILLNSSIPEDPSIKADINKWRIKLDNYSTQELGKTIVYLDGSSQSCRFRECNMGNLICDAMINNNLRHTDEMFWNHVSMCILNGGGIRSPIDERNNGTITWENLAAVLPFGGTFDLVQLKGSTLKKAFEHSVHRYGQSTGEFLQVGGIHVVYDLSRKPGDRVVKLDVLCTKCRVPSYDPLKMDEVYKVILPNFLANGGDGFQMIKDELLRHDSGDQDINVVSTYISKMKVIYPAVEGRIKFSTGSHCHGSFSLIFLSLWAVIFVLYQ
Method: Compound serial dilution (1:3) was prepared with Echo 555 liquid handler (Labcyte) into the corresponding wells of a 384-well plate. 25 μL of enzyme working solution [0.2 nM recombinant CD73 protein (purchased from R&D Systems, Inc), 25 mM Tris-HCl pH 7.5, 5 mM MgCl2, 0.01% BSA, 0.01% Brij-35 non-ionic detergent] was added to the assay plate and incubated with compounds for 15 minutes at room temperature. After adding 25 μL of AMP working solution (10 μM AMP, 25 mM Tris-HCl pH 7.5, 5 mM MgCl2, 0.01% BSA, 0.01% Brij-35) into the assay plate, the reaction was incubated for 10 min at room temperature. 10 uL of Malachite Green A solution was then added to each well for 10 minutes incubation. 10 uL of Malachite B solution was added to each well and then incubated for another 30 minutes. Finally the absorbance value was read on the Envision plate reader (PerkinElmer) at […]. Calculation percentage inhibition by using equation {% inhibition=100×[I−(X−MIN)/(MAX−MIN)]} where X equals to the well signal, Max equals signal of DMSO control and MIN equals signal of no cell control.

Chain of CD73 (MDA-MB-231 cells) (P21589 27-574): as the sequence (P21589 27-574, species assumed) above

| IC50 (CD73 (MDA-MB-231 cells)) [nM] | IC50 (recombinant CD73 protein) [nM] | Structure (SMILES) |
| --- | --- | --- |
| 107 |  | Cn1c(=O)n(Cc2ccccc2)c2cc(-c3c[nH]c(=O)[nH]c3=O)nnc21 [Example 4, 5-(5-benzyl-7-methyl-6-oxo-imidazo[4,5-c]pyridazin-3-yl)-1H-pyrimidine-2,4-dione] |
| 156 | 254 | Cn1c(=O)n(C)c2nnc(-c3c[nH]c(=O)[nH]c3=O)cc21 [Example 2, 5-(5,7-dimethyl-6-oxo-imidazo[4,5-c]pyridazin-3-yl)-1H-pyrimidine-2,4-dione] |
| 27 | 267 | CC(C)n1c(=O)n(C)c2nnc(-c3c[nH]c(=O)[nH]c3=O)cc21 [Example 3, 5-(5-isopropyl-7-methyl-6-oxo-imidazo[4.5-]pyridazin-3-yl)-1H-pyrimidine-2,4-dione] |
| 74 | 622 | Cn1c(=O)[nH]c2nnc(-c3c[nH]c(=O)[nH]c3=O)cc21 [Example 1, 5-(5-methyl-6-oxo-7H-imidazo[4,5-c]pyridazin-3-yl)-1H-pyrimidine-2,4-dione] |
